Usually CC50 stands for the concentration giving 50% cytotoxicity.

The nature of data set [1]: Brain-to-plasma ratio in mice. The note with it: mouse, ip, 1 h post-administration, i.p. 1.5 mg/kg, read-out: brain-to-plasma ratio (B/P). The data set is classed as in vivo.
Data set [2] in a line: Plasma pharmacokinetics in CD-1 mice. The data set is classed as in vivo, mouse. The settings on record: i.v. 5 mg/kg. As to the method: Studies to determine the pharmacokinetic properties of compounds 53 and 60 were conducted at Touchstone Biosciences (Plymouth Meeting, PA). For the determination of plasma pharmacokinetics, three male CD-1 mice (2–3 months of age) were injected i.v. (tail vein) with test compound at a dose of 5 mg/kg in a solution of 10% DMSO, 40% polyethylene glycol, and 50% water, and another three male CD-1 mice received oral gavage dosing of 60 formulated as above at a dose of 20 mg/kg. Blood samples were collected from the saphenous or submandibular veins at multiple time points after dosing and collected in Greiner MiniCollect K2EDTA tubes. Compound levels in plasma were determined by LC-MS/MS, using protocols similar to those previously described.[16],[22]

In data set [3] the test system is de-tyrosinated α-tubulin (GluTub) in brain of WT mice. The experiment in a line: Brain PD: Glu-tubulin in brain tissue after compound treatment. It counts as in vivo, mouse. The note with it: WT CD-1 mice, 1 mg/kg i.p. once daily for two consecutive days. The protocol: Finally, to evaluate target engagement in the CNS, PD studies were conducted to determine compound-dependent elevations in the stable MT marker, de-tyrosinated α-tubulin (GluTub), in brain homogenates from compound-treated WT mice.
All animal protocols were approved by the University of Pennsylvania Institutional Animal Care and Use Committee (IACUC). […] Compounds were diluted from 20 or 40 mM DMSO stock solutions into 30% Kolliphor EL (Sigma-Aldrich) phosphate-buffered saline, pH 7.4. After 4 h following the second injection, mice were euthanized and cortices and hippocampi were isolated from each brain and placed in 0.2 mL of ice-cold radioimmunoprecipitation assay (RIPA) buffer (50 mM Tris, 150 mM NaCl, 5 mM EDTA, 0.5% sodium deoxycholate, 1% NP-40, 0.1% sodium dodecyl sulfate (SDS), pH 8.0) containing protease inhibitor (PI) cocktail (Sigma-Aldrich), 1 mM phenylmethylsulfonyl fluoride (PMSF) (Sigma-Aldrich), and 3 μM trichostatin A (TSA) (Sigma-Aldrich). The brain samples were homogenized with a handheld battery-operated mixer and subsequently sonicated. After centrifugation at 100,000g for 30 min at 4 °C, supernatant samples were transferred to a new tube and the pellets were resuspended in 0.15 mL of RIPA buffer and again homogenized, sonicated, and centrifuged. The supernatant from the second centrifugation was pooled with that from the first. The combined supernatant samples were assessed for protein concentration using a BCA assay (Thermo Fisher Scientific), and equal protein amounts from each brain sample underwent separation by 10% sodium dodecyl sulfate polyacrylamide gel electrophoresis (SDS-PAGE) followed by transfer onto nitrocellulose membranes essentially as previously described.[11] […] Incubation with infrared dye-conjugated secondary antibodies and subsequent imaging and quantification of the blots on the Odyssey imaging system were as described.[11]

Data set [4] can be described thus: Resazurin cell viability assay, QBI293. It counts as cell-based. The settings on record: human, QBI293 cells, three biological replicates, read-out: QBI293 CC50 ± SD. The protocol:
(§1) Cell Culture. QBI293 and HeLa cells were cultured in DMEM supplemented with 10% heat-
(§2) inactivated FBS and 1% penicillin-streptomycin. Cells were grown in T175 cell culture flasks maintained
(§3) at 37 ℃ in 5% CO2 and sub-c ultured when at 60-8 0% cell confluence.
(§4) Resazurin Cell Viability Assay. Cytotoxicity in QBI293 and HeLa cells was measured using the
(§5) resazurin cell viability assay.1 Test compounds were serially diluted in DMSO and added to 96-well
(§6) polystyrene assay plates to give final assay concentrations ranging from 100 nM to 4000 nM (1 µL; 1%
(§7) total DMSO). Fresh medium was added to the assay plate (49 µL/well). QBI293 or HeLa cells were
(§8) cells/well. Assay plates were incubated at 37 °C and 5% CO2 for 48 h, followed by addition of 20 µL 0.5
(§9) mM resazurin (Alfa Aesar, Cat. B21187) in PBS to each well. Assay plates were incubated in the dark for
(§10) (1 picture or pasted object on this page, not shown here)
(§11) 4 h at 37 °C. Fluorescence was measured at 531 nm and 595 nm excitation and emission wavelengths,
(§12) respectively, using a 2104 EnVision® multilabel plate reader. The viability of each well was normalized to
(§13) positive and negative controls in each assay plate. Dose-response curves were generated and CC50 values
(§14) calculated with GraphPad Prism, version 9.3 (San Diego, CA) using a sigmoidal four parameter logistic
(§15) curve. The means ± standard deviations from three biological replicates are shown.
(§16) (1) O'Brien, J.; Wilson, I.; Orton, T.; Pognan, F. Investigation of the Alamar Blue (resazurin) fluorescent
(§17) dye for the assessment of mammalian cell cytotoxicity. Eur. J. Biochem. 2000, 267 (17), 5421-5426.

Data set [5] in a line: Resazurin cell viability assay, HeLa. It counts as cell-based. The note with it: human, HeLa cells, three biological replicates, read-out: HeLa CC50 ± SD. As to the method: as §1, §2, §3, §4, §5, §6, §7, §8, §9, §10, §11, §12, §13, §14, §15, §16, §17
On the technique in general: Alamar Blue is a resazurin reagent that responds to reducing activity.

As to `C[C@@H](Nc1c(-c2c(F)cc(C#CCCO)cc2F)c(Cl)nc2ncnn12)C(C)(C)C` [Compound 53, (R)-4-(4-(5-Chloro-7-((3,3-dimethylbutan-2-yl)amino)-[1,2,4]triazolo[1,5-a]pyrimidin-6-yl)-3,5-difluorophenyl)but-3-yn-1-ol], in data set [1], the Kp at 1 h is approximately 0.5. In addition, the “half-life (T1/2)” value in data set [2] is “relatively prolonged half-life”. The “brain GluTub (GluTub-to-total α-Tub ratio) relative to vehicle-treated mice” value in data set [3] is “significant elevations in brain GluTub”. For the same molecule, the CC50 at 48 h in data set [4] was 0.0301 ± 0.0048 µM; in data set [5], 0.0308 ± 0.0047 µM.

Values taken from publication PMC9841533, “Microtubule-Stabilizing 1,2,4-Triazolo[1,5-a]pyrimidines as Candidate Therapeutics for Neurodegenerative Disease: Matched Molecular Pair Analyses and Computational Studies Reveal New Structure–Activity Insights” (Journal of Medicinal Chemistry, 2022).
